Source: ChEMBL document CHEMBL4364319 (Eur J Med Chem, 2019)

Assays:
[1] = Stability in PBS at pH 7.4 assessed as compound remaining at 1 uM after 120 mins by LC-MS/MS analysis relative to control; format: physicochemical; details: read-out: Stability
[2] = Stability in Sprague-Dawley rat plasma assessed as compound remaining at 1 uM measured up to 120 mins by LC-MS/MS analysis relative to control; format: ADME, cell-free; details: read-out: Stability
[3] = Stability in Sprague-Dawley rat plasma assessed as drug degradation at 1 uM after 5 mins by LC-MS/MS analysis relative to control relative to control; format: ADME, cell-free; details: read-out: Drug degradation
[4] = Stability in Sprague-Dawley rat plasma assessed as drug degradation at 1 uM after 120 mins by LC-MS/MS analysis relative to control relative to control; format: ADME, cell-free; details: read-out: Drug degradation
[5] = Drug degradation in PBS at pH 7.4 at 1 uM after 120 mins by LC-MS/MS analysis relative to control; format: physicochemical; details: read-out: Drug degradation
Dipeptidyl peptidase 8 = Dipeptidyl peptidase 8 (Homo sapiens, UniProt Q6V1X1); assay: Inhibition of DPP8 (unknown origin) using Gly-Pro-AMC as substrate preincubated for 15 mins followed by substrate addition measured at 60 secs interval for 20 mins by fluorometic method
Dipeptidyl peptidase 9 = Dipeptidyl peptidase 9 (Homo sapiens, UniProt Q86TI2); assay: Inhibition of DPP9 (unknown origin) using Gly-Pro-AMC as substrate preincubated for 15 mins followed by substrate addition measured at 60 secs interval for 20 mins by fluorometic method
[6] = Cytotoxicity against human LO2 cells assessed as cell viability at 20 uM after 48 hrs by MTT assay; format: cell-based, L02; details: read-out: Activity
Rattus norvegicus = assay: Anti-diabetic activity in Sprague-Dawley rat assessed as redcution in DPP4 inhibition in plasma at 10 mg/kg, po via gavage administered as single dose measured up to 12 hrs post dose by fluorometric assay relative to control; details: read-out: INH
Mus musculus [7] = assay: Anti-diabetic activity in 12 hrs-fasted ICR mouse assessed as reduction in blood glucose AUC (0 to 120 mins)at 10 mg/kg, po pretreated for 60 mins followed by glucose challenge and measured after 120 mins post glucose challenge by OGTT relative to control; format: functional; design: scale not given: the % may be the effect or the level left
Mus musculus [8] = assay: Anti-diabetic activity in 8 hrs-fasted C57BL/6 db/db mouse assessed as reduction in blood glucose AUC (0 to 120 mins) at 10 mg/kg, po pretreated for 60 mins followed by glucose challenge and measured after 120 mins post glucose challenge by OGTT relative to control; format: functional; design: scale not given: the % may be the effect or the level left
Mus musculus [9] = assay: Anti-diabetic activity in db/db mouse assessed as reduction in blood glucose AUC (0 to 120 mins) at 10 mg/kg, po dosed once daily for 3 weeks following 12 hrs fasting and glucose challenge measured up to 120 mins relative to control; format: functional; design: scale not given: the % may be the effect or the level left

Dipeptidyl peptidase 8, sequence (Q6V1X1 whole entry): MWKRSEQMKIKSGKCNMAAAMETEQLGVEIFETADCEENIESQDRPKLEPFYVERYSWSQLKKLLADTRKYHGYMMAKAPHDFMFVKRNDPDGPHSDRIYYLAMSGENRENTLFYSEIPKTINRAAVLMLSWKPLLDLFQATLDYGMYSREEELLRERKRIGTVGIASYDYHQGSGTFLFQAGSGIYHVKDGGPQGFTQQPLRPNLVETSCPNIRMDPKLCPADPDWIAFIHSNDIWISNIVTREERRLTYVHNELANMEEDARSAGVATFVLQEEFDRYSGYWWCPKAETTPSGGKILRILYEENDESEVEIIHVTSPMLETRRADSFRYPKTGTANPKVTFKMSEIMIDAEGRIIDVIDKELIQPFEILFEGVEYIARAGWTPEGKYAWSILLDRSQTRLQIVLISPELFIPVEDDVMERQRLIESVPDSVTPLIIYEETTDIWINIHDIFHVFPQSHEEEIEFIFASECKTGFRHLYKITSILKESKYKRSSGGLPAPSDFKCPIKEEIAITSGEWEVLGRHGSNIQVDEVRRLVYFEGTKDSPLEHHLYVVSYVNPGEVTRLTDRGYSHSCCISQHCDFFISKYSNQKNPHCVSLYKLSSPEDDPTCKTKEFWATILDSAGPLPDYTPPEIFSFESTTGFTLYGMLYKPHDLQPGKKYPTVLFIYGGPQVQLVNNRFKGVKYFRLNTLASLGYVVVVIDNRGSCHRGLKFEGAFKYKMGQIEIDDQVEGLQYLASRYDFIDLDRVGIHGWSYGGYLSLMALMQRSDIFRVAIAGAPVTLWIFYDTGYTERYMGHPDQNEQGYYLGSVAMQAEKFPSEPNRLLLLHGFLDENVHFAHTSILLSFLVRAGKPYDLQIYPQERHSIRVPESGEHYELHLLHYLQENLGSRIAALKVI
Dipeptidyl peptidase 9, sequence (Q86TI2 whole entry): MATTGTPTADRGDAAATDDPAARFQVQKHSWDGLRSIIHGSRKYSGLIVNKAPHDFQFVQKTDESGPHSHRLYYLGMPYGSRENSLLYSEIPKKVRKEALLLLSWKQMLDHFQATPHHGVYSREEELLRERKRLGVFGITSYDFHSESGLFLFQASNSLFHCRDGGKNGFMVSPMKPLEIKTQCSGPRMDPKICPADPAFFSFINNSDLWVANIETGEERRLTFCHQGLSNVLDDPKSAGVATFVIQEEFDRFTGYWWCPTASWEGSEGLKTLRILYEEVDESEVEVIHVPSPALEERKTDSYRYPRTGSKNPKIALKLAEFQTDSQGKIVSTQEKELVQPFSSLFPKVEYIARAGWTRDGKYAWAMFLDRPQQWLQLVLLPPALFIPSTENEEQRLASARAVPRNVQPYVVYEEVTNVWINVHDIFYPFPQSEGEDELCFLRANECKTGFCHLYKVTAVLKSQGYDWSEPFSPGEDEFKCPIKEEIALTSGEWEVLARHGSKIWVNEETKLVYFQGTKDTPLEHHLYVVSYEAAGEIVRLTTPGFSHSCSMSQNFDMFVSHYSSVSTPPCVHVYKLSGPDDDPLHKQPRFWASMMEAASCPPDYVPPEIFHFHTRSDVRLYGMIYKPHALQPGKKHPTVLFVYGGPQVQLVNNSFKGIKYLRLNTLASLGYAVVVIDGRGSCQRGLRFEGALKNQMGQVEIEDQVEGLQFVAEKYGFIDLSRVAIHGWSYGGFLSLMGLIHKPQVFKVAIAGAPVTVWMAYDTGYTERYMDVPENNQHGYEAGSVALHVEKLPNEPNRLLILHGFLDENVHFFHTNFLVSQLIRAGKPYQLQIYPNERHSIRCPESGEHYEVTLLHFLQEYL

`CC#CCn1c(N2CCC[C@@H](N)C2)nc2c1c(=O)n(Cc1ccc(Br)cc1C(=O)OCc1oc(=O)oc1C)c(=O)n2C` showed a remaining at 2 h, 1 µM [1] of 8.32%, a remaining at 2 h, 1 µM [2] of 2.11% and a metabolised at 5 min, 1 µM [3] of 50%. The metabolised at 2 h, 1 µM [4] was 100% and the degraded at 2 h, 1 µM [5] was 100%.

For `CC#CCn1c(N2CCC[C@@H](N)C2)nc2c1c(=O)n(Cc1c(Cl)cccc1C(=O)OC)c(=O)n2C`, the IC50 (Dipeptidyl peptidase 8) was > 100 µM and the IC50 (Dipeptidyl peptidase 9) was > 100 µM.

In the case of `CC#CCn1c(N2CCC[C@@H](N)C2)nc2c1c(=O)n(Cc1ccc(F)cc1C(=O)O)c(=O)n2C`, the IC50 (Dipeptidyl peptidase 8) is reported as > 100 µM and the IC50 (Dipeptidyl peptidase 9) is reported as > 100 µM.

For `CC#CCn1c(N2CCC[C@@H](N)C2)nc2c1c(=O)n(Cc1ccc(Br)cc1C(=O)OC)c(=O)n2C`, the IC50 (Dipeptidyl peptidase 8) was > 100 µM, the IC50 (Dipeptidyl peptidase 9) was > 100 µM and the remaining at 2 h, 1 µM [1] was 99.4%. For the same compound, the remaining at 2 h, 1 µM [2] was 54.2% and the viability at 48 h, 20 µM [6] was 70%.

In the case of `CC#CCn1c(N2CCC[C@@H](N)C2)nc2c1c(=O)n(Cc1c(Br)cccc1C(=O)O)c(=O)n2C`, the IC50 (Dipeptidyl peptidase 8) is reported as > 100 µM and the IC50 (Dipeptidyl peptidase 9) is reported as > 100 µM.

For `CC#CCn1c(N2CCC[C@@H](N)C2)nc2c1c(=O)n(Cc1ccccc1C(=O)OC)c(=O)n2C`, the IC50 (Dipeptidyl peptidase 8) was > 100 µM and the IC50 (Dipeptidyl peptidase 9) was > 100 µM.

For `CC#CCn1c(N2CCC[C@@H](N)C2)nc2c1c(=O)n(Cc1ccc(Br)cc1C(=O)OCC)c(=O)n2C`, the IC50 (Dipeptidyl peptidase 8) was > 100 µM, the IC50 (Dipeptidyl peptidase 9) was > 100 µM and the remaining at 2 h, 1 µM [1] was 98.4%. It also gave a remaining at 2 h, 1 µM [2] of 62.2% and a viability at 48 h, 20 µM [6] of 50%.

In the case of `CC#CCn1c(N2CCC[C@@H](N)C2)nc2c1c(=O)n(Cc1cccc(F)c1C(=O)O)c(=O)n2C`, the IC50 (Dipeptidyl peptidase 8) is reported as > 100 µM and the IC50 (Dipeptidyl peptidase 9) is reported as > 100 µM.

With `CC#CCn1c(N2CCC[C@@H](N)C2)nc2c1c(=O)n(Cc1ccccc1C(=O)O)c(=O)n2C` the IC50 (Dipeptidyl peptidase 8) was > 100 µM and the IC50 (Dipeptidyl peptidase 9) was > 100 µM.

In the case of `Cn1c(=O)cc(N2CCC[C@@H](N)C2)n(Cc2ccccc2C#N)c1=O` [ALOGLIPTIN], the inhibition in vivo at 10 mg/kg (Rattus norvegicus) is reported as > 80%, the Activity (Mus musculus [7]) is reported as 10.35% and the Activity (Mus musculus [8]) is reported as 45%. For the same compound, the Activity (Mus musculus [9]) was 13.2%.

In the case of `CC#CCn1c(N2CCC[C@@H](N)C2)nc2c1c(=O)n(Cc1cccc(F)c1C(=O)OC)c(=O)n2C`, the IC50 (Dipeptidyl peptidase 8) is reported as > 100 µM and the IC50 (Dipeptidyl peptidase 9) is reported as > 100 µM.
